Data taken from ChEMBL document CHEMBL4828709, “Discovery of 2,4-pyrimidinediamine derivatives as potent dual inhibitors of ALK and HDAC” (Eur J Med Chem, 2021).
The source made the active and inactive calls. No cut-off for these calls is given here.

Key:
[1] = target: Histone deacetylase 1 (Homo sapiens, UniProt Q13547); details: Sf9, dose 100.0 nM, time 15.0 min
[2] = target: T1, ALK tyrosine kinase receptor (Homo sapiens, UniProt Q9UM73); test: Inhibition of ALK (unknown origin) at 10 nM preincubated for 10 mins followed by addition of substrate and ATP for 25 mins by caliper EZ reader method; details: time 35.0 min
Target sequence in this assay (Q9UM73 19-1620 limits assumed): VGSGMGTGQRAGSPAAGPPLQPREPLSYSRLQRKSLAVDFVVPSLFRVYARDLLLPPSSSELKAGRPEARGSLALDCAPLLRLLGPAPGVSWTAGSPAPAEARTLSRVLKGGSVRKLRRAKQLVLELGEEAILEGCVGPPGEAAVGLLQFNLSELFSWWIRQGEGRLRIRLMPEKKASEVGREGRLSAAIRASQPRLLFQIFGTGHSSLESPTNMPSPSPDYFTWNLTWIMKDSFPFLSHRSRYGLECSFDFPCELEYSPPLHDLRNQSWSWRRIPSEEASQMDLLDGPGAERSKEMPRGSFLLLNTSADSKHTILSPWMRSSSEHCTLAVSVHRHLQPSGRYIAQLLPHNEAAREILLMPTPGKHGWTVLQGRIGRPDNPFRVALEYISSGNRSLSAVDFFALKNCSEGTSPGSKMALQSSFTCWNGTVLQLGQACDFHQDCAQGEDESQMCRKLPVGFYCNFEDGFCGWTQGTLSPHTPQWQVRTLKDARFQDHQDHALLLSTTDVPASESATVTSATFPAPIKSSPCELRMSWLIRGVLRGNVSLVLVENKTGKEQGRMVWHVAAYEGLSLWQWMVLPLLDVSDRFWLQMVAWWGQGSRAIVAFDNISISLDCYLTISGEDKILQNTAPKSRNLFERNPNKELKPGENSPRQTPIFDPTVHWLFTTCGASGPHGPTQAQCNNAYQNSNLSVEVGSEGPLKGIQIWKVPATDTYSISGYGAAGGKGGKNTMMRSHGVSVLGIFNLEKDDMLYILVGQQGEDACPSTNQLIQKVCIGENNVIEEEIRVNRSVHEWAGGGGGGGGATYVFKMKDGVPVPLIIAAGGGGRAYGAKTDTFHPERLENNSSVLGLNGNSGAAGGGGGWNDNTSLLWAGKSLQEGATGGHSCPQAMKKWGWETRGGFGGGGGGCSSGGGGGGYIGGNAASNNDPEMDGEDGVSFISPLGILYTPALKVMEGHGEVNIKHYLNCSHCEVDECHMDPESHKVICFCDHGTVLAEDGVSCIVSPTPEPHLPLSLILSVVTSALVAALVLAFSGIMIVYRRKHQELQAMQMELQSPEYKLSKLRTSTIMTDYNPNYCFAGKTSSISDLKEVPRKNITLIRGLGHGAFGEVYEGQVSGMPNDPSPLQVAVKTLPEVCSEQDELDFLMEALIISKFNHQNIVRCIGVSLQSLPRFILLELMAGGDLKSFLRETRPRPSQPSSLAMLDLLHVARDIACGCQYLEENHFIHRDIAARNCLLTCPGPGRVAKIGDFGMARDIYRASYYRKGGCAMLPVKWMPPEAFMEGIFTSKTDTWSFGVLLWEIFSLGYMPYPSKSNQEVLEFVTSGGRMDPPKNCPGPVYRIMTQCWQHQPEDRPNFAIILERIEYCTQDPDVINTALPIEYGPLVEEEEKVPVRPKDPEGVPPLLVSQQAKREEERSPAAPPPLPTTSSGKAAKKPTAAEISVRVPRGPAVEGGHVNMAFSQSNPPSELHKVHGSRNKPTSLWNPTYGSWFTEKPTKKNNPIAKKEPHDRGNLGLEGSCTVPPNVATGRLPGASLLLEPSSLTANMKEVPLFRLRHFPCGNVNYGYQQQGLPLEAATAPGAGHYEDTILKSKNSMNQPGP

[3] = target: Histone deacetylase 2 (Homo sapiens, UniProt Q92769)
Description: Inhibition of HDAC2 (unknown origin)

[4] = target: T1, ALK tyrosine kinase receptor
Target sequence in this assay (Q9UM73 whole entry): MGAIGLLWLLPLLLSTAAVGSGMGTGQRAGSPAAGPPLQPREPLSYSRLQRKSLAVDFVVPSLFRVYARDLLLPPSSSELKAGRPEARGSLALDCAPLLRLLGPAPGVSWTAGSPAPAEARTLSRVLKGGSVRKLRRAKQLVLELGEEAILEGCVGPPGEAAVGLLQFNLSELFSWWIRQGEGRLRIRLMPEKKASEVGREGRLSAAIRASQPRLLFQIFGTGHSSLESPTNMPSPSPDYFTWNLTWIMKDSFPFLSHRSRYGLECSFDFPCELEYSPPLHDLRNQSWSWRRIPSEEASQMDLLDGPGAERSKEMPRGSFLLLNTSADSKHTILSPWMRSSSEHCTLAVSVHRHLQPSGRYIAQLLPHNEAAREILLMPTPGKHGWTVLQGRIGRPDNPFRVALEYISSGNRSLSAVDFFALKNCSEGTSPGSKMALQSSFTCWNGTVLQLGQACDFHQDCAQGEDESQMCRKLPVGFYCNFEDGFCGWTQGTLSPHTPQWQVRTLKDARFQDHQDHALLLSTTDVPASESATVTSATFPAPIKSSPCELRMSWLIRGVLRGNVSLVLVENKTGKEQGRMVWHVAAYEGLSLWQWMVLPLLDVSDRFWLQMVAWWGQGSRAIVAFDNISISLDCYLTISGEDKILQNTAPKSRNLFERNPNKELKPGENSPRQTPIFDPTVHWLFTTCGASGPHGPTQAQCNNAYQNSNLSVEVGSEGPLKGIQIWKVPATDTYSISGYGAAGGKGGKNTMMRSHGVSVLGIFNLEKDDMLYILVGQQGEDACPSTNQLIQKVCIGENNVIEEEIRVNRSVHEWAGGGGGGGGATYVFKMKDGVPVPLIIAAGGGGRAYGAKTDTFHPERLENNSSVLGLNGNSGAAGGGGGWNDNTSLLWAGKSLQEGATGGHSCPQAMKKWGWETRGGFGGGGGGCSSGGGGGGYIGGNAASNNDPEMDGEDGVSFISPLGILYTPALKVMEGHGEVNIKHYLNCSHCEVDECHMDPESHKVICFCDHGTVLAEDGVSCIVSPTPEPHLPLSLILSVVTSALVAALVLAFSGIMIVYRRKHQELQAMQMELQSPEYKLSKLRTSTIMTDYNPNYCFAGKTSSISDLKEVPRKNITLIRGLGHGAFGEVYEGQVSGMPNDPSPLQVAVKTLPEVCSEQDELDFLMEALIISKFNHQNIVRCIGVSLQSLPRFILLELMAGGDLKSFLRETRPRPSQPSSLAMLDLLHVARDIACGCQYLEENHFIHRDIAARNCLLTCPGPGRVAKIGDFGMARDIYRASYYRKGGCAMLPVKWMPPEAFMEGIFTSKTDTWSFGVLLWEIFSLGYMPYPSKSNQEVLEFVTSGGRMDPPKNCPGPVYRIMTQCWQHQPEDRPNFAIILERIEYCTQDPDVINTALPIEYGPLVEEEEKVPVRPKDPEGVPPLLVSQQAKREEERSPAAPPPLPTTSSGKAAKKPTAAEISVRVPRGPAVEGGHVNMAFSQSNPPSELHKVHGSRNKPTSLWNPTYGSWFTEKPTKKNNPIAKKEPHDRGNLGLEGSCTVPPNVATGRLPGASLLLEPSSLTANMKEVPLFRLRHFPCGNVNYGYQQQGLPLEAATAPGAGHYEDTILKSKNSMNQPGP
Description: Inhibition of ALK (unknown origin) preincubated for 10 mins followed by addition of substrate and ATP for 25 mins by caliper EZ reader method

[5] = target: ALK tyrosine kinase receptor (Homo sapiens, UniProt Q9UM73, G1202R)
Sequence of ALK tyrosine kinase receptor (Homo sapiens, UniProt Q9UM73, G1202R) (Q9UM73 19-1620 G1202R limits assumed): as the sequence (Q9UM73 19-1620 limits assumed) above, with G1184R counted along it

[6] = tested on: MDA-MB-231; test: Induction of apoptosis in human MDA-MB-231 cells assessed as orange-red fluorescence intensity at 1 to 4 uM measured after 24 hrs by AO/EB staining based fluorescence microscopy; assay type: functional, cell-based; details: dose 1-4 µM
[7] = tested on: MDA-MB-231; test: Induction of apoptosis in human MDA-MB-231 cells assessed as increase in blue fluorescence intensity at 1 to 4 uM measured after 24 hrs by Hoechst33258 staining based fluorescence microscopy; assay type: functional, cell-based; details: dose 1-4 µM
[8] = tested on: MDA-MB-231; test: Induction of apoptosis in human MDA-MB-231 cells assessed as viable cells at 1 uM measured after 24 hrs by Annexin V-FITC/PI staining based flowcytometry (reference value: 93.14%); assay type: functional; details: read-out: Activity
[9] = tested on: MDA-MB-231; test: Induction of apoptosis in human MDA-MB-231 cells assessed as viable cells at 2 uM measured after 24 hrs by Annexin V-FITC/PI staining based flowcytometry (reference value: 93.14%); assay type: functional; details: read-out: Activity
[10] = tested on: MDA-MB-231; test: Induction of apoptosis in human MDA-MB-231 cells assessed as viable cells at 4 uM measured after 24 hrs by Annexin V-FITC/PI staining based flowcytometry (reference value: 93.14%); assay type: functional; details: read-out: Activity
[11] = tested on: MDA-MB-231; test: Induction of apoptosis in human MDA-MB-231 cells assessed as late apoptotic cells at 4 uM measured after 24 hrs by Annexin V-FITC/PI staining based flowcytometry (reference value: 5.28%); assay type: functional
[12] = tested on: SH-SY5Y; test: Induction of apoptosis in human SH-SY5Y cells assessed as early apoptotic cells at 1 uM measured after 24 hrs by Annexin V-FITC/PI staining based flowcytometry (reference value: 0.82%); assay type: functional
[13] = tested on: SH-SY5Y; test: Induction of apoptosis in human SH-SY5Y cells assessed as viable cells at 4 uM measured after 24 hrs by Annexin V-FITC/PI staining based flowcytometry (reference value: 77.05%); assay type: functional; details: read-out: Activity
[14] = tested on: SH-SY5Y; test: Induction of apoptosis in human SH-SY5Y cells assessed as late apoptotic cells at 4 uM measured after 24 hrs by Annexin V-FITC/PI staining based flowcytometry (reference value: 14.32%); assay type: functional
[15] = tested on: MDA-MB-231; test: Cell cycle arrest in human MDA-MB-231 cells assessed as accumulation of cells at G2 phase at 2 uM measured after 24 hrs by PI staining based flowcytometry method (reference value: 23.89%); assay type: functional
[16] = tested on: MDA-MB-231; test: Cell cycle arrest in human MDA-MB-231 cells assessed as accumulation of cells at S phase at 2 uM measured after 24 hrs by PI staining based flowcytometry method (reference value: 20.81%); assay type: functional
[17] = tested on: MDA-MB-231; test: Cell cycle arrest in human MDA-MB-231 cells assessed as accumulation of cells at G2 phase at 4 uM measured after 24 hrs by PI staining based flowcytometry method (reference value: 23.89%); assay type: functional
[18] = tested on: SH-SY5Y; test: Cell cycle arrest in human SH-SY5Y cells assessed as accumulation of cells at S phase at 1 uM measured after 24 hrs by PI staining based flowcytometry method (reference value: 27.69%); assay type: functional
[19] = tested on: SH-SY5Y; test: Cell cycle arrest in human SH-SY5Y cells assessed as accumulation of cells at G1 phase at 4 uM measured after 24 hrs by PI staining based flowcytometry method (reference value: 59.8%); assay type: functional
[20] = tested on: SH-SY5Y; test: Cell cycle arrest in human SH-SY5Y cells assessed as accumulation of cells at G2 phase at 4 uM measured after 24 hrs by PI staining based flowcytometry method (reference value: 13.23%); assay type: functional
[21] = tested on: SH-SY5Y; test: Cell cycle arrest in human SH-SY5Y cells assessed as accumulation of cells at S phase at 4 uM measured after 24 hrs by PI staining based flowcytometry method (reference value: 27.69%); assay type: functional
[22] = target: Histone deacetylase (Homo sapiens) (UniProt Q13547+O15379+Q9UBN7+Q92769+Q9UQL6+Q8WUI4+Q9BY41+Q96DB2+P56524+Q9UKV0+Q969S8); test: Inhibition of HDAC in human MDA-MB-231 cells assessed as increase of intracellular acetylated histone H3 level at 1 to 4 uM measured after 24 hrs by Western blot assay; assay type: cell-based; details: dose 1-4 µM
[23] = target: T1, ALK tyrosine kinase receptor; test: Inhibition of ALK in human MDA-MB-231 cells assessed as inhibition of ALK phosphorylation at Tyr1278 residue at 4 uM measured after 24 hrs by Western blot assay; assay type: cell-based
Target sequence in this assay (Q9UM73 19-1620 limits assumed): as the sequence (Q9UM73 19-1620 limits assumed) above

[24] = target: T1, ALK tyrosine kinase receptor; test: Inhibition of ALK in human MDA-MB-231 cells assessed as inhibition of AKT phosphorylation at Ser473 residue at 4 uM measured after 24 hrs by Western blot assay; assay type: cell-based
Target sequence in this assay (Q9UM73 19-1620 limits assumed): as above

[25] = target: T1, ALK tyrosine kinase receptor; test: Inhibition of human ALK in human SH-SY5Y cells assessed as inhibition of ALK phosphorylation at Tyr1278 residue at 4 uM measured after 24 hrs by Western blot assay; assay type: cell-based
Target sequence in this assay (Q9UM73 19-1620 limits assumed): as above

[26] = target: T1, ALK tyrosine kinase receptor; test: Inhibition of human ALK in human SH-SY5Y cells assessed as inhibition of ERK phosphorylation at Thr202/Tyr204 residue at 4 uM measured after 24 hrs by Western blot assay; assay type: cell-based
Target sequence in this assay (Q9UM73 19-1620 limits assumed): as above

[27] = target: Insulin-like growth factor 1 receptor (Homo sapiens) (UniProt P08069); test: Inhibition of human IGF1R at 1 uM
[28] = target: Insulin receptor (Homo sapiens) (UniProt P06213); test: Inhibition of human InsR at 1 uM
Sequence of Insulin receptor (Homo sapiens) (P06213 28-758 limits assumed): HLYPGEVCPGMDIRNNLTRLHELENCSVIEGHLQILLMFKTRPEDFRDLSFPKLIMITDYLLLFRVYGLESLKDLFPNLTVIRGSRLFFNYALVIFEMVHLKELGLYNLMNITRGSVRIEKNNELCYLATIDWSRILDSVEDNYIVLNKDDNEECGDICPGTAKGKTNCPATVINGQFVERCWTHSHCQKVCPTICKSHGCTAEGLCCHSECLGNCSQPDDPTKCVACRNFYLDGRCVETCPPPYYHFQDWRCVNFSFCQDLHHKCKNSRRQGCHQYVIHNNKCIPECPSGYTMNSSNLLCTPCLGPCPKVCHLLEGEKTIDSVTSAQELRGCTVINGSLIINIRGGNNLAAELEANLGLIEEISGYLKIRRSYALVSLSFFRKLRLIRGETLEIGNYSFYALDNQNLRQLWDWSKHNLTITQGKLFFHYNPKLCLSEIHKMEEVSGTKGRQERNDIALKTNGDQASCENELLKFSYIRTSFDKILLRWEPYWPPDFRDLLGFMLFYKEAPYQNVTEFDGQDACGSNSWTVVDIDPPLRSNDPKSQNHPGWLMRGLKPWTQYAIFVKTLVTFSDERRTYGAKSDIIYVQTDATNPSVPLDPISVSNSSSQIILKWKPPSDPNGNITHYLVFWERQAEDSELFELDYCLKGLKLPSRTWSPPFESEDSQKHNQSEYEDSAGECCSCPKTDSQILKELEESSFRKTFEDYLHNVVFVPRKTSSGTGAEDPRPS
Sequence of Insulin receptor (Homo sapiens) (P06213 763-1382 limits assumed): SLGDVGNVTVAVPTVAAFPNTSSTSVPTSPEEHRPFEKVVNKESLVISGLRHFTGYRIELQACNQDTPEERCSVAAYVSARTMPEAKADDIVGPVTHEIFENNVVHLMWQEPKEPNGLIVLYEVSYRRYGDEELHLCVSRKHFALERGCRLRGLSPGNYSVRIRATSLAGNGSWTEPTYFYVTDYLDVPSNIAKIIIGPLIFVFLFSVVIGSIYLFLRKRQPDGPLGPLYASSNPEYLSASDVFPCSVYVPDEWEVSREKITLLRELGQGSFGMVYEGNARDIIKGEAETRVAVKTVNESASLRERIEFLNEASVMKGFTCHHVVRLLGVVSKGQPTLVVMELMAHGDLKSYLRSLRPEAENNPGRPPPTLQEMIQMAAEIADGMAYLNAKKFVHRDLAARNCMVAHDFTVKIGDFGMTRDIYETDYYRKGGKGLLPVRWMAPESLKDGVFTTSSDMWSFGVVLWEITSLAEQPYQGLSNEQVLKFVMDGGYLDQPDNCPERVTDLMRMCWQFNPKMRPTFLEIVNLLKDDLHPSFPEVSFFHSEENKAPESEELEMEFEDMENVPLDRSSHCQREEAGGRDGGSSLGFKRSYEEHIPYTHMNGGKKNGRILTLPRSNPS

[29] = organism: Homo sapiens; test: Inhibition of human Aurora kinase at 1 uM
[30] = Volume of distribution at steady state in Sprague-Dawley rat at 1 mg/kg, iv measured for 12 hrs by LC-MS/MS analysis; assay type: ADME, organism-based; details: in vivo
[31] = tested on: NCI-H2228; test: Potency index, ratio of ceritinib IC50 to test compound IC50 for human NCI-H2228 cells harboring EML4/ALK […] assessed as inhibition of cell proliferation measured after 72 hrs by CCK8 assay; assay type: functional
[32] = target: T1, ALK tyrosine kinase receptor; test: Inhibition of human ALK in human SH-SY5Y cells assessed as inhibition of Akt phosphorylation at Ser473 residue at 4 uM measured after 24 hrs by Western blot assay; assay type: cell-based
Target sequence in this assay (Q9UM73 19-1620 limits assumed): as the sequence (Q9UM73 19-1620 limits assumed) above

[33] = target: T1, ALK tyrosine kinase receptor; test: Inhibition of ALK in human MDA-MB-231 cells assessed as inhibition of ALK phosphorylation at Tyr1278 residue measured after 24 hrs by Western blot assay; assay type: cell-based; details: dose 1-4 µM
[34] = target: T1, ALK tyrosine kinase receptor; test: Inhibition of human ALK in human SH-SY5Y cells assessed as inhibition of ALK phosphorylation at Tyr1278 residue measured after 24 hrs by Western blot assay; assay type: cell-based; details: dose 1-4 µM

Compound `CC(C)S(=O)(=O)c1ccccc1Nc1nc(Nc2ccc(NC(=O)CCCCCCC(=O)NO)cc2)ncc1Cl` has an inhibition [1] of 87%, an inhibition [2] of 80.8% and an IC50 [3] of 9.3 nM. The IC50 [4] was 2.1 nM, the IC50 [5] was 0.4 nM and the Activity [6] was “Active”. For the same compound, the Activity [7] was “Active”, the viability at 1 µM [8] was 87.9% and the viability at 2 µM [9] was 85.1%. The viability at 4 µM [10] was 76.9%, the Activity [11] was 14.85% and the Activity [12] was 1.21%. It also gave a viability at 4 µM [13] of 38.3%, an Activity [14] of 45.5% and an Activity [15] of 49.05%. For the same compound, the Activity [16] was 21.32%, the Activity [17] was 50.99% and the Activity [18] was 18.33%. It also gave an Activity [19] of 4.38%, an Activity [20] of 88.07% and an Activity [21] of 7.55%. The inhibition [22] was “Active”, the inhibition [23] was “Active” and the inhibition [24] was “Active”. The inhibition [25] was “Active”, the inhibition [26] was “Active” and the inhibition [27] was “Active”. The inhibition [28] was “Active”, the inhibition [29] was 95% and the Vdss [30] was 3.3 L/kg. The “Ratio IC50” value [31] was 3, the inhibition [32] was “Active” and the inhibition [33] was “Dose-Dependent Effect”. For the same compound, the inhibition [34] was “Dose-Dependent Effect”.
